Laboratory results: PubChem BioAssay AID1745844 (Carcinogenic Potency Database (CPDB), 2022)
Values joined by “and” are separate entries in the source; they are usually repeats but may differ in a detail not shown here. Identical values can stand only once. Active and inactive are the calls of the source. The rule behind the calls is not given here.

Tested on: rodent lifetime carcinogenesis bioassay, tumor incidence TD50
Assay: carcinogenic potency in animals, long-term in vivo studies, CPDB compilation (AID 1745844)
[1] = rat, strain Sprague-Dawley, females, by gavage, site: liver, lesion: hepatocellular carcinoma, dosed 52 weeks, study length 65 weeks

SMILES: [Cl][Hg]
- carcinogen call (mouse, strain BALB/c, males, in feed, site: liver, lesion: one or several types, types not named, dosed 60 weeks, study length 104 weeks): negative (inactive)
- carcinogen call (mouse, strain BALB/c, males, in feed, site: lung, lesion: one or several types, types not named, dosed 60 weeks, study length 104 weeks): negative (inactive)

SMILES: C[C@]12C=CC(=O)C=C1CC[C@@H]1[C@@H]2C(=O)C[C@@]2(C)[C@H]1CC[C@]2(O)C(=O)CO
- carcinogen call (mouse, strain Charles River CD1, females, in feed, site: liver, lesion: several types, types named in the paper, dosed 78 weeks, study length 78 weeks): negative (inactive)
- carcinogen call (mouse, strain Charles River CD1, females, in feed, site: lung, lesion: alveolar/bronchiolar tumor, dosed 78 weeks, study length 78 weeks): negative (inactive)
- carcinogen call (mouse, strain Charles River CD1, females, in feed, site: lung, lesion: undifferentiated carcinoma, dosed 78 weeks, study length 78 weeks): negative (inactive)
- carcinogen call (mouse, strain Charles River CD1, males, in feed, site: liver, lesion: several types, types named in the paper, dosed 78 weeks, study length 78 weeks): negative (inactive)
- carcinogen call (mouse, strain Charles River CD1, males, in feed, site: lung, lesion: alveolar/bronchiolar tumor, dosed 78 weeks, study length 78 weeks): negative (inactive)

SMILES: CC/C(=C(\c1ccccc1)c1ccc(OCCN(C)C)cc1)c1ccccc1
- TD50 (mouse, strain AP Alderly Park, females, several routes, site: ovary, lesion: granulosa-cell adenoma, dosed 65 weeks, study length 65 weeks): 3 mg/kg/day
- TD50 (mouse, strain AP Alderly Park, males, several routes, site: testis, lesion: interstitial-cell adenoma, dosed 65 weeks, study length 65 weeks): 8.18 mg/kg/day
- TD50 (mouse, strain AP Alderly Park, males, several routes, site: testis, lesion: interstitial-cell tumor, dosed 56 weeks, study length 56 weeks): 9.8 mg/kg/day
- TD50 (mouse, strain B6C3F1, females, in feed, site: liver, lesion: hepatocellular adenoma, dosed 104 weeks, study length 104 weeks): 101 mg/kg/day (inactive)
- carcinogen call (mouse, strain B6C3F1, females, in feed, site: lung, lesion: alveolar-cell carcinoma, dosed 104 weeks, study length 104 weeks): negative (inactive)
- carcinogen call (mouse, strain B6C3F1, females, in feed, site: uterus, lesion: leiomyoma, dosed 104 weeks, study length 104 weeks): negative (inactive)
- carcinogen call (mouse, strain C57BL/6, females, in feed, site: liver, lesion: hepatocellular carcinoma, dosed 52 weeks, study length 52 weeks): negative (inactive)
- carcinogen call (mouse, strain DBA/2, females, in feed, site: liver, lesion: hepatocellular carcinoma, dosed 52 weeks, study length 52 weeks): negative (inactive)
- TD50 (rat, strain Alpk:APfSD, females, by gavage, site: liver, lesion: biliary cystadenoma, dosed 88 weeks, study length 107 weeks): 706 mg/kg/day
- TD50 (rat, strain Alpk:APfSD, females, by gavage, site: liver, lesion: cholangioma, dosed 88 weeks, study length 107 weeks): 2260 mg/kg/day
- TD50 (rat, strain Alpk:APfSD, females, by gavage, site: liver, lesion: hepatocellular adenoma, dosed 88 weeks, study length 107 weeks): 135 mg/kg/day
- TD50 (rat, strain Alpk:APfSD, females, by gavage, site: liver, lesion: hepatocellular carcinoma, dosed 88 weeks, study length 107 weeks): 17 mg/kg/day
- TD50 (rat, strain Alpk:APfSD, females, by gavage, site: liver, lesion: hepatocholangiocarcinoma, dosed 88 weeks, study length 107 weeks): 241 mg/kg/day
- TD50 (rat, strain Alpk:APfSD, males, by gavage, site: liver, lesion: biliary cystadenoma, dosed 88 weeks, study length 107 weeks): 1100 mg/kg/day
- TD50 (rat, strain Alpk:APfSD, males, by gavage, site: liver, lesion: hepatocellular adenoma, dosed 88 weeks, study length 107 weeks): 47.9 mg/kg/day
- TD50 (rat, strain Alpk:APfSD, males, by gavage, site: liver, lesion: hepatocellular carcinoma, dosed 88 weeks, study length 107 weeks): 18.7 mg/kg/day
- TD50 (rat, strain Alpk:APfSD, males, by gavage, site: liver, lesion: hepatocholangiocarcinoma, dosed 88 weeks, study length 107 weeks): 306 mg/kg/day
- TD50 (rat, strain Charles River CD (Sprague-Dawley), females, by gavage, site: liver, lesion: hepatocellular adenoma, dosed 51 weeks, study length 65 weeks): 7.77 mg/kg/day
- TD50 (rat, strain Charles River CD (Sprague-Dawley), females, by gavage, site: liver, lesion: hepatocellular adenoma, dosed 52 weeks, study length 65 weeks): 4.35 mg/kg/day
- TD50 (rat, strain Charles River CD (Sprague-Dawley), females, by gavage, site: liver, lesion: hepatocellular carcinoma, dosed 51 weeks, study length 65 weeks): 7.77 mg/kg/day
- TD50 (rat, strain Charles River CD (Sprague-Dawley), females, by gavage, site: liver, lesion: hepatocellular carcinoma, dosed 52 weeks, study length 52 weeks): 2.12 mg/kg/day and 10.3 mg/kg/day
- TD50 (rat, strain Charles River CD (Sprague-Dawley), females, by gavage, site: liver, lesion: hepatocellular carcinoma, dosed 52 weeks, study length 65 weeks): 4.62 mg/kg/day
- TD50 (rat, strain Charles River CD (Sprague-Dawley), females, by gavage, site: liver, lesion: several types, types named in the paper, dosed 52 weeks, study length 52 weeks): 1.44 mg/kg/day
- TD50 (rat, strain Charles River CD (Sprague-Dawley), females, by gavage, site: liver, lesion: several types, types named in the paper, dosed 52 weeks, study length 65 weeks): 3.86 mg/kg/day
- TD50 (rat, strain Fischer 344/Tox, females, in feed, site: liver, lesion: hepatocellular carcinoma, dosed 86 weeks, study length 86 weeks): 4.18 mg/kg/day
- TD50 (rat, strain Lewis, females, in feed, site: liver, lesion: hepatocellular carcinoma, dosed 48 weeks, study length 48 weeks): 1.38 mg/kg/day
- TD50 (rat, strain Sprague-Dawley, females, by gavage, site: any site (literature study), lesion: malignant tumor, dosed 167 weeks, study length 167 weeks): 88.7 mg/kg/day
- TD50 (rat, strain Sprague-Dawley, females, by gavage, site: liver, lesion: hepatocellular adenoma, dosed 167 weeks, study length 167 weeks): 497 mg/kg/day
- TD50 (rat, strain Sprague-Dawley, females, by gavage, site: liver, lesion: hepatocellular carcinoma, dosed 52 weeks, study length 52 weeks): 11.8 mg/kg/day and 7.56 mg/kg/day and 4.79 mg/kg/day
- TD50 [1]: 18.9 mg/kg/day and 6 mg/kg/day
- carcinogen call [1]: positive
- TD50 (rat, strain Sprague-Dawley, females, by gavage, site: liver, lesion: hepatocellular carcinoma, dosed 167 weeks, study length 167 weeks): 164 mg/kg/day
- carcinogen call (rat, strain Sprague-Dawley, females, by gavage, site: liver, lesion: several types, types named in the paper, dosed 52 weeks, study length 52 weeks): positive
- TD50 (rat, strain Sprague-Dawley, females, by gavage, site: uterus, lesion: fibroma, dosed 167 weeks, study length 167 weeks): 247 mg/kg/day
- TD50 (rat, strain Sprague-Dawley, females, by gavage, site: uterus, lesion: sarcoma, dosed 167 weeks, study length 167 weeks): 487 mg/kg/day
- TD50 (rat, strain Sprague-Dawley, females, by gavage, site: uterus, lesion: squamous-cell carcinoma, dosed 167 weeks, study length 167 weeks): 497 mg/kg/day
- TD50 (rat, strain Sprague-Dawley, females, by gavage, site: vagina, lesion: squamous-cell carcinoma, dosed 167 weeks, study length 167 weeks): 497 mg/kg/day
- TD50 (rat, strain Sprague-Dawley, males, by gavage, site: any site (literature study), lesion: malignant tumor, dosed 167 weeks, study length 167 weeks): 187 mg/kg/day
- TD50 (rat, strain Sprague-Dawley, males, by gavage, site: liver, lesion: hepatocellular adenoma, dosed 167 weeks, study length 167 weeks): 497 mg/kg/day
- TD50 (rat, strain Sprague-Dawley, males, by gavage, site: liver, lesion: hepatocellular carcinoma, dosed 167 weeks, study length 167 weeks): 247 mg/kg/day
- TD50 (rat, strain Sprague-Dawley, males, by gavage, site: mammary tissue, wider than the gland, lesion: adenocarcinoma, dosed 167 weeks, study length 167 weeks): 247 mg/kg/day
- TD50 (rat, strain Sprague-Dawley, males, by gavage, site: mammary tissue, wider than the gland, lesion: benign tumor, dosed 167 weeks, study length 167 weeks): 96.4 mg/kg/day
- TD50 (rat, strain Wistar/LAC-P, females, in feed, site: liver, lesion: hepatocellular carcinoma, dosed 49 weeks, study length 49 weeks): 1.36 mg/kg/day

SMILES: CC(/C=C/C=C(\C)C(=O)O[C@@H]1O[C@H](CO[C@@H]2O[C@H](CO)[C@@H](O)[C@H](O)[C@H]2O)[C@@H](O)[C@H](O)[C@H]1O)=C\C=C\C=C(C)\C=C\C=C(/C)C(=O)O[C@@H]1O[C@H](CO[C@@H]2O[C@H](CO)[C@@H](O)[C@H](O)[C@H]2O)[C@@H](O)[C@H](O)[C@H]1O
- carcinogen call (mouse, strain C57BL/6N, females, in drinking water, site: liver, lesion: hepatoma, dosed 95 weeks, study length 95 weeks): negative (inactive)
- carcinogen call (mouse, strain C57BL/6N, females, in drinking water, site: lung, lesion: one or several types, types not named, dosed 95 weeks, study length 95 weeks): negative (inactive)
- carcinogen call (mouse, strain C57BL/6N, males, in drinking water, site: liver, lesion: hepatoma, dosed 95 weeks, study length 95 weeks): negative (inactive)
- carcinogen call (mouse, strain C57BL/6N, males, in drinking water, site: lung, lesion: one or several types, types not named, dosed 95 weeks, study length 95 weeks): negative (inactive)
